Results on twelve compounds are retold here after patent publication US8609689B2, “Pyridopyrazinones derivatives insulin secretion stimulators, methods for obtaining them and use thereof for the treatment of diabetes” (Merck Patent GmbH, priority 2008, dated 2013).

In data set [1] the test system is INS-1 cells. The data set can be described thus: Insulin secretion assay in INS-1 cells (glucose at 4.2 mM). Format: cell-based, rat. Conditions: 1 h incubation; for activity at 10 µM: Rattus norvegicus, INS1, glucose 4.2 mM, compound 10 μm, read-out: Insulin secretion, % of ctrl at 10 μm of cpd; for Insulin secretion, % of ctrl at 50 μm of cpd: glucose 4.2 mM, compound 50 μm. How it is done:
INS-1 cells were cultured in complete medium, RPMI1640 containing 1 mM sodium pyruvate, 50 μM 2-mercaptoethanol, 2 mM glutamine, 10 mM HEPES, 100 IU/mL penicillin, and 100 μg/mL streptomycin (CM), supplemented with 10 mM glucose, and 10% (vol/vol) heat-inactivated fetal […] (FCS), as described by Asfari et al. (Endocrinology 130: 167-178, 1992).
INS-1 cells were plated and cultured in 48-well plates. After 2 days of culture, the medium was removed and cells were cultured for 24 h with a medium change to 5 mM glucose, 1% FCS. The cells were then washed with Krebs-Ringer Bicarbonate HEPES buffer (KRBH; 135 mM NaCl; 3.6 mM KCl; 5 mM NaHCO3; 0.5 mM NaH2PO4; 0.5 mM MgCl2; 1.5 mM CaCl2 and 10 mM HEPES; pH 7.4) 0.1% BSA containing 2.8 mM glucose and preincubated for 30 min at 37° C. in the same buffer. The cells were then washed twice and incubated for 1 h in KRBH 0.1% BSA containing 4.2 mM glucose and different concentrations of the tested molecule. Insulin concentration in the collected supernatants was measured with ELISA using rat insulin antibody (Insulin Rat Elit PLUS, cat, ref 10-1145-01).
Insulin secretion results are expressed in % of control (glucose 4.2 mM).

Data set [2] concerns diabetic N0STZ rat islets. Briefly: Insulin secretion in diabetic N0STZ rat islets. In kind it is cell-based. To be noted: 90 min, Means±SEM. How it is done: 14±3 weeks non-fasted N0STZ (PORTHA et al., 1974) male rats (Charles Rivers-Domaine des Oncins, I'Arbresle, France) were anesthetized with sodium pentobarbital (Nembutal®: 45 mg/kg in 5 ml/kg administered intra peritoneally) and body temperature was maintained with a heat lamp.
Rat pancreatic islets of Langerhans were isolated from the pancreas of 8 rats by collagenase P (Boehringer, Meylan, France) digestion. Islets were purified by sedimentation in Hanks balanced salt solution [NaCl (137 mM); KCl (5.36 mM); MgSO4, 7 H2O (0.81 mM); Na2HPO4, 12 H2O (0.34 mM); KH2PO4 (0.44 mM); CaCl2, 2 H2O (1.26 mM); NaHCO3 (4.17 mM)] followed by Ficoll gradient separation. Islets were then hand-picked under stereoscopic microscope and batches of 3 islets were incubated for 90 minutes at 37° C. with continuous shaking under a humidified condition ([…], 5% CO2) in 1 ml of Krebs/Hepes pH 7 solution [NaCl (115 mM), NaHCO3 (24 mM), KCl (5 mM), MgCl2 (1 mM), CaCl2, 2 H2O (1 mM), 0.2% of Bovine serum albumin (Fraction V, fatty acid free, Boehringer, Mannheim), 10 mM Hepes] containing the required glucose or compound concentration. Compounds were dissolved in DMSO at 2.10-2M stock solutions. They were then diluted at the required concentration in Krebs/Hepes buffer containing the required glucose concentration.
At the end of incubation, media was collected and insulin levels were measured using ELISA (EUROBIO, Courtaboeuf, France).
Islets were hand-picked and incubated in the presence of increasing concentrations of compounds in the presence of glucose at 2.8 or 8 mM. At the end of incubation, media was collected and insulin levels were measured using ELISA method. Results are expressed as % of glucose control (2.8 or 8 mM) and represent Means±SEM.

[3] abbreviates: glucose 2.8 mM, compound 10−4 M.

Take `O=c1c(-c2ccc(F)cc2)nc2cccnc2n1C1CC1` [Example 3-6, 4-cyclopropyl-2-(4-fluorophenyl)pyrido[2,3-b]pyrazin-3(4H)-one]: in data set [1], the activity at 10 µM turned out to be 231% and the “Insulin secretion, % of ctrl at 50 μm of cpd” value (from here on “Insulin secretion, % of ctrl”) was 255 % of ctrl.
As to `CC(C)n1c(=O)c(-c2ccc(Cl)cc2)nc2cccnc21` [Example 3-18, 2-(4-chlorophenyl)-4-isopropyl-pyrido[2,3-b]pyrazin-3(4H)-one], the activity at 10 µM in data set [1] was found to be 338%.
Take `CCn1c(=O)c(-c2ccc(Cl)cc2)nc2cccnc21` [Example 3-2, 2-(4-chlorophenyl)-4-ethylpyrido[2,3-b]pyrazin-3(4H)-one]: in data set [1], the activity at 10 µM was determined as 240% and the “Insulin secretion, % of ctrl” value is recorded as 263 % of ctrl.
For the compound `CCn1c(=O)c(-c2ccccc2)nc2cccnc21` [Example 3-4, 4-ethyl-2-phenylpyrido[2,3-b]pyrazin-3(4H)-one], in data set [1], the activity at 10 µM was determined as 226% and the “Insulin secretion, % of ctrl” value was 302 % of ctrl.
For orientation: melting point means the temperature, or range, at which the solid turns liquid. As to `Cc1ccnc2c1nc(-c1ccc(Cl)cc1)c(=O)n2C1CC1` [Example 3-13, 2-(4-chlorophenyl)-4-cyclopropyl-8-methylpyrido[2,3-b]pyrazin-3(4H)-one], the melting point is 159 to 163 °C.
As to `CCn1c(=O)c(-c2ccc(F)cc2)nc2cccnc21` [Example 3-3, 2-(4-fluorophenyl)-4-ethylpyrido[2,3-b]pyrazin-3(4H)-one], in data set [1], the activity at 10 µM came out at 235% and the “Insulin secretion, % of ctrl” value is 251 % of ctrl.
As to `O=c1c(-c2ccc(Cl)cc2)nc2cccnc2n1CC1CC1` [Example 3, 2-(4-chlorophenyl)-4-cyclopropylmethylpyrido[2,3-b]pyrazin-3(4H)-one], the activity at 10 µM in data set [1] worked out at 241%. Moreover, the “Insulin secretion, % of ctrl” value in data set [1] was 398 % of ctrl. The “Insulin secretion, % of glucose control” value is on record as 85 ± 8 % of glucose control in data set [2] (setting [3]); 168 ± 7 % of glucose control in data set [2] (glucose 8 mM, compound 10−4 M); 145 ± 9 % of glucose control in data set [2] (glucose 8 mM, compound 10−5 M); 110 ± 7 % of glucose control in data set [2] (glucose 8 mM, compound 10−6 M); 100 ± 7 % of glucose control in data set [2] (glucose 8 mM, compound 10−7 M).
On to `Cc1cc(F)ccc1-c1nc2cccnc2n(C2CC2)c1=O` [Example 6-2, 4-cyclopropyl-2-(4-fluoro-2-methylphenyl)pyrido[2,3-b]pyrazin-3(4H)-one], for which the melting point was 165 to 167 °C.
Take `O=c1c(-c2ccc(Cl)cc2)nc2cccnc2n1C1CC1` [Example 3-5, 2-(4-chlorophenyl)-4-cyclopropylpyrido[2,3-b]pyrazin-3(4H)-one]: in data set [1], the activity at 10 µM worked out at 418% and the “Insulin secretion, % of ctrl” value was 610 % of ctrl.
Consider `O=c1c(-c2ccc(Cl)cc2)nc2cccnc2n1CC(F)F` [Example 3-8, 2-(4-chlorophenyl)-4-(2,2-difluoroethyl)pyrido[2,3-b]pyrazin-3(4H)-one], for which, in data set [1], the activity at 10 µM is 273%.
The compound `COCCn1c(=O)c(-c2ccc(F)cc2)nc2cccnc21` [Example 3-16, 2-(4-fluorophenyl)-4-(2-methoxyethyl)pyrido[2,3-b]pyrazin-3(4H)-one] displayed a melting point of 124 to 127 °C. Moreover, the activity at 10 µM in data set [1] came to 254%.
As to `O=c1c(-c2ccc(F)cc2)nc2cccnc2n1CC1CC1` [Example 3-7, 4-cyclopropylmethyl-2-(4-fluorophenyl)pyrido[2,3-b]pyrazin-3(4H)-one], the activity at 10 µM in data set [1] was found to be 208%. Further, the “Insulin secretion, % of ctrl” value in data set [1] was 221 % of ctrl. Besides, the “Insulin secretion, % of glucose control” value was 84 ± 10 % of glucose control in data set [2] (setting [3]); 228 ± 12 % of glucose control in data set [2] (glucose 8 mM, compound 10−4 M); 210 ± 9 % of glucose control in data set [2] (glucose 8 mM, compound 10−5 M); 149 ± 9 % of glucose control in data set [2] (glucose 8 mM, compound 10−6 M); 124 ± 7 % of glucose control in data set [2] (glucose 8 mM, compound 10−7 M).
